Reference: ChEMBL document CHEMBL1137221, “Validation of model of cytochrome P450 2D6: an in silico tool for predicting metabolism and inhibition” (J Med Chem, 2004)

Tests used:
Cytochrome P450 2D6 [1] = biological target: T1, Cytochrome P450 2D6 (Homo sapiens, UniProt P10635); experiment: Inhibitory concentration against cytochrome P450 2D6
Cytochrome P450 2D6 [2] = biological target: T1, Cytochrome P450 2D6; experiment: Binding affinity for cytochrome P450 2D6; format: ADME

T1 sequence (P10635 whole entry): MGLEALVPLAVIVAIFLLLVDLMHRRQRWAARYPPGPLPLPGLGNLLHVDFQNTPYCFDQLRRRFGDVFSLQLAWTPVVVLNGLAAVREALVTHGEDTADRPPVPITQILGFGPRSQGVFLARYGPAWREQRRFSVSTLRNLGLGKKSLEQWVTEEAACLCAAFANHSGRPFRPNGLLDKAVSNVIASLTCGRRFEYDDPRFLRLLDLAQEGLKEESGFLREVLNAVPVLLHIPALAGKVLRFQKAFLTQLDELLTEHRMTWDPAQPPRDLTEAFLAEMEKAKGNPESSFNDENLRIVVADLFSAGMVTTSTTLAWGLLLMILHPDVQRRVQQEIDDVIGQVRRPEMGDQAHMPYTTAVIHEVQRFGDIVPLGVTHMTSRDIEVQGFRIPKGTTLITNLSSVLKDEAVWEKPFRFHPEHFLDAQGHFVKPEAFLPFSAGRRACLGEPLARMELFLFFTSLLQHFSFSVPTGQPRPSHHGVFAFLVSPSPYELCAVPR

Compound | IC50 (Cytochrome P450 2D6 [1]) [µM] | Ki (Cytochrome P450 2D6 [2]) [µM]
COc1ccc(S(=O)(=O)N/N=C/C(=O)O)cc1 | 288 | 
COC(=O)C12OC[C@]34[C@H]([C@@H](O)[C@@H]1O)[C@@]1(C)CC(=O)C(O)=C(C)[C@@H]1C[C@H]3OC(=O)[C@H](OC(=O)/C=C(\C)C(C)C)[C@@H]24 (single isomer, unassigned) [BRUCEANTIN] | 514 | 
Nc1ccc2c(c1)CN1C(=O)c3ccccc3C1=N2 [DANIQUIDONE] | 48 | 
O=C(Cn1ccnc1[N+](=O)[O-])N(CCO)CCO | 1020 | 
CC(=O)N(C)c1ccc(Nc2cc(C)nc3ccc4[nH]cnc4c23)cc1 [ACODAZOLE] | 18.1 | 
NCCCc1c(-c2ccccc2)nc(N)[nH]c1=O | 234 | 
CNCCC=C1c2ccccc2CCc2ccccc21 [NORTRIPTYLINE] | 2.6 | 
O=C1CC2(CCCCC2)C(=O)C1CC(Cl)CCl (configuration not stated) | 310 | 
O=C(O)c1ccc(CNCc2ccccc2)cc1 | 570 | 
Clc1ccc(Cl)c(SCCCN2CCNCC2)c1 | 2.1 | 
CC(C)NC(=O)OCc1c(COC(=O)NC(C)C)c(-c2ccc(Cl)c(Cl)c2)n2c1CCC2 | 11 | 
O=C(O)CCCc1ccc(N(CCCl)CCCl)cc1 [CHLORAMBUCIL] | 65.1 | 
COc1ccc2c(c1[N+](=O)[O-])CC[C@@H]1[C@@H]2CC[C@]2(C)C(=O)CC[C@@H]12 | 196 | 
CN(C)CCOc1ccc(/C(=C/c2ccccc2)c2ccccc2)cc1 | 7.2 | 
C=C[C@H]1C[N@@]2CC[C@H]1C[C@@H]2[C@@H](O)c1ccnc2ccccc12 [CINCHONINE] | 1.8 | 21
COC12[C@H](COC(N)=O)C3=C(C(O)=C(C)C(=N)C3=O)N1C[C@H]1[C@@H]2N1C (some centres not stated) | 94.3 | 
NCC(O)CSCc1ccc(Cl)cc1 (configuration not stated) | 8 | 
CN(C)CCN1C(=O)c2cccc3cc(N)cc(c23)C1=O [AMONAFIDE] | 39.6 | 
NS(=O)(=O)OCCCCCCCOS(N)(=O)=O | 699 | 
CCN(CC)CCNc1ccc(CO)c2sc3ccccc3c(=O)c12 [HYCANTHONE] | 1.5 | 
O=CC(NC(=O)N(CCCl)N=O)C(O)C(O)C(O)CO (configuration not stated) | 2020 | 
